The test system of experiment [1] is Omicron XBB.1.9.1 variant. Details: method as in Chen et al., 2024. Conditions: ref Chen et al., 2024, read-out: concentration for 90% of maximal effect (EC90); cited from earlier work.
Experiment [2] relates to Omicron variant. The experiment is described as follows: Target concentration needed to achieve EC90. In kind it is cell-based, SARS-CoV-2.

Consider one molecule from paper PMC11387175, “Model informed dose regimen optimizing in development of leritrelvir for the treatment of mild or moderate COVID-19” (Frontiers in Pharmacology, 2024).

`O=C(NC1CCCC1)C(=O)[C@H](C[C@@H]1CCNC1=O)NC(=O)[C@@H]1[C@H]2CCC[C@H]2CN1C(=O)[C@@H](NC(=O)C(F)(F)F)C1CCCCC1` [leritrelvir]: in experiment [1], the EC90 was 415 nM. Moreover, in experiment [2], the “concentration needed to achieve EC90” value is 209.7 ng/mL.
